The target in one data set is T1, 5-HT4 receptor (Cavia porcellus, UniProt O70528).
T1 construct: from tissue; host or cells: guinea pig striatum
Briefly: 5-HT4 Receptor Binding - Guinea Pig Striatum. The note with it: radioligand [3H]GR113808 (0.70 nM). The source says:
The 5-HT4 receptor is known to be the major receptor subtype involved in the prokinetic activity of cisapride in the gut.

In data set [1] the target is T2, human IKr (hERG K+ channels) (Homo sapiens, UniProt Q12809).
T2 construct: expressed in transfected cells; host or cells: HEK-293
Briefly: Inhibition of IKr activity, whole cell patch-clamp in HEK-293 cells expressing hERG K+ channels. It is filed as cell-based. The note with it: data normalized to % control tail IKr. As to the method: The rapidly activating delayed rectifier potassium (K+) current in humans (human IKr) is a K+ channel that is encoded by the human-ether-a-go-go-related gene (hERG). Cisapride is known to produce QT interval prolongations via a blockade of IKr, and it was therefore of interest to determine whether compounds of the invention have important inhibitory effects on human IKr. The test system was mammalian HEK-293 cells expressing the hERG K+ channels, in which the potassium current was measured by whole cell patch-clamp technique.
Background: Patch clamp records ionic current or voltage across a cell membrane.

The conditions of data set [2]: between July 1993 and December 1999; cited from earlier work.
The conditions of data set [3]: in vivo; cited from earlier work.

Molecules are shown by their SMILES.

The values below come from US20080085915A1, “COMPOUNDS AND METHODS FOR THE TREATMENT OF GASTROINTESTINAL AND CENTRAL NERVOUS SYSTEM DISORDERS” (priority 2006, published 2008).

T2 sequence (Q12809 whole entry): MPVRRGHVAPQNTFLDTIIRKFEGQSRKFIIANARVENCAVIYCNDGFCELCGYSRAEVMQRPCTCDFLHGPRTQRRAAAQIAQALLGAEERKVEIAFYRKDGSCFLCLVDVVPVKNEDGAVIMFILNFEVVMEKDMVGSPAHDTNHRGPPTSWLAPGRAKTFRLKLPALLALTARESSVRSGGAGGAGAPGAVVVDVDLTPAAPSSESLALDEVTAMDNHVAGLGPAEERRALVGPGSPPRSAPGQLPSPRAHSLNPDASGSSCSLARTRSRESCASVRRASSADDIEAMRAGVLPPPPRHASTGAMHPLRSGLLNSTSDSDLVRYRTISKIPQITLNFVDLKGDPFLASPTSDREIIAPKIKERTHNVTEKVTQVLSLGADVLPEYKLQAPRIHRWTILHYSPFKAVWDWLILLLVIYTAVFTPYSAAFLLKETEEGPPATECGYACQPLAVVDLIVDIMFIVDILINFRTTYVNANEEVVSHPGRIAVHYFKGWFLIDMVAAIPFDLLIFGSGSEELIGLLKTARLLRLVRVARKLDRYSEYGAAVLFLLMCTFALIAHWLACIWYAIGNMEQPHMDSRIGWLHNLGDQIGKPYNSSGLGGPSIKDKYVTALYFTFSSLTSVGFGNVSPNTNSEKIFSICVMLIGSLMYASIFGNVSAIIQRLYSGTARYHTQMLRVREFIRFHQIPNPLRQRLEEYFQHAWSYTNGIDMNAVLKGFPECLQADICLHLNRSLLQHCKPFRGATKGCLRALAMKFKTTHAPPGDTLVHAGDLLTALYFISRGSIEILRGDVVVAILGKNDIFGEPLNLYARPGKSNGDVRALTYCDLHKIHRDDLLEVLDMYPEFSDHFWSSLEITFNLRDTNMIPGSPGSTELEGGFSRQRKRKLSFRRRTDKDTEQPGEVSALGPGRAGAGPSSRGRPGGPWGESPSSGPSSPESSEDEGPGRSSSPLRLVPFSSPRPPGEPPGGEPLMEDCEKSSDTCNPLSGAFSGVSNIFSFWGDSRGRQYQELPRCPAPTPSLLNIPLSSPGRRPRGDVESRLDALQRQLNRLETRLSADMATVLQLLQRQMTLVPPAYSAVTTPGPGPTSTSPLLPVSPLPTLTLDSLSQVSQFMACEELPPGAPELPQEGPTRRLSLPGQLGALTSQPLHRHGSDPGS
T1 sequence (O70528 whole entry): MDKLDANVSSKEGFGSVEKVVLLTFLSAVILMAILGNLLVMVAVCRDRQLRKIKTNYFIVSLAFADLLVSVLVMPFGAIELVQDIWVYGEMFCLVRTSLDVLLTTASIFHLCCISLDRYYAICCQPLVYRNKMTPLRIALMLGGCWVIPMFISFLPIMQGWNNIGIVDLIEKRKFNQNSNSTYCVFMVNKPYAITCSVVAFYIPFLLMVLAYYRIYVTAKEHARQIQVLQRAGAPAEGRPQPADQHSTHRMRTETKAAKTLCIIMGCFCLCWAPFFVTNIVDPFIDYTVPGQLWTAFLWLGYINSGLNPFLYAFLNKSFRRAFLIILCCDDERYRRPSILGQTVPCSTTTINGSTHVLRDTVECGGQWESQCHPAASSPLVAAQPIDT

In turn, `COc1cc(N)c(Cl)cc1C(=O)N[C@@H]1CCN(CC(=O)Nc2ccc(CC(=O)O)cc2)C[C@@H]1OC` [Compound 45, 2-(4-(2-((3S,4R)-4-(4-amino-5-chloro-2-methoxybenzamido)-3-methoxypiperidin-1-yl)acetamido)phenyl)acetic acid] came in with a Ki on 5-HT4 receptor of more than 500 nM. The molecule further gave an IC50 in data set [1] of more than 25000 nM. In the case of `COc1cc(N)c(Cl)cc1C(=O)N[C@@H]1CCN(CC(=O)Nc2ccc(O)cc2)C[C@@H]1OC` [Compound 59, 4-amino-5-chloro-N-((3S,4R)-1-(2-(4-hydroxyphenylamino)-2-oxoethyl)-3-methoxypiperidin-4-yl)-2-methoxybenzamide], the Ki on 5-HT4 receptor is less than 50 nM. Same read-out and setting: as for `COc1cc(N)c(Cl)cc1C(=O)N[C@@H]1CCN(CC(=O)Nc2ccc(CC(=O)OC3CN4CCC3CC4)cc2)C[C@@H]1OC` (stereo partly drawn) [Compound 49, quinuclidin-3-yl 2-(4-(2-((3S,4R)-4-(4-amino-5-chloro-2-methoxybenzamido)-3-methoxypiperidin-1-yl)acetamido)phenyl)acetate], the figure is less than 50 nM. As for `COc1cc(N)c(Cl)cc1C(=O)N[C@@H]1CCN(CCN(C)Cc2ccc(C(=O)OCCN3CCOCC3)cc2)C[C@@H]1OC` [Compound 12, 2-morpholinoethyl 4-(((2-((3S,4R)-4-(4-amino-5-chloro-2-methoxybenzamido)-3-methoxypiperidin-1-yl)ethyl)(methyl)amino)methyl)benzoate], the Ki on 5-HT4 receptor is 50 to 500 nM. The same measure, in the same setting: the value for `COc1cc(N)c(Cl)cc1C(=O)N[C@@H]1CCN(CC(=O)Nc2ccc(C(=O)OCCN3CCNCC3)cc2)C[C@@H]1OC` [Compound 95, 2-(piperazin-1-yl)ethyl 4-(2-((3S,4R)-4-(4-amino-5-chloro-2-methoxybenzamido)-3-methoxypiperidin-1-yl)acetamido)benzoate] was less than 50 nM. With `COc1cc(N)c(Cl)cc1C(=O)N[C@@H]1CCN(CC(=O)Nc2ccc(CC(=O)OCCCO)cc2)C[C@@H]1OC` [Compound 48, 3-hydroxypropyl 2-(4-(2-((3S,4R)-4-(4-amino-5-chloro-2-methoxybenzamido)-3-methoxypiperidin-1-yl)acetamido)phenyl)acetate], the Ki at 5-HT4 receptor is less than 50 nM. In data set [1], the IC50 is 10000 to 25000 nM. As for `COc1cc(N)c(Cl)cc1C(=O)N[C@@H]1CCN(CCNCc2ccc(C(=O)OCCCO)cc2)C[C@@H]1OC` [Compound 24, 3-hydroxypropyl 4-((2-((3S,4R)-4-(4-amino-5-chloro-2-methoxybenzamido)-3-methoxypiperidin-1-yl)ethylamino)methyl)benzoate], the Ki on 5-HT4 receptor lay in the range of 50 to 500 nM. Same read-out and setting: as for `COc1cc(N)c(Cl)cc1C(=O)N[C@@H]1CCN(CCCc2ccc(C(=O)OC3CCN(C)CC3)cc2)C[C@@H]1OC` [Compound 69, 1-methylpiperidin-4-yl 4-(3-((3S,4R)-4-(4-amino-5-chloro-2-methoxybenzamido)-3-methoxypiperidin-1-yl)propyl)benzoate], the figure is less than 50 nM; as for `COc1cc(N)c(Cl)cc1C(=O)N[C@@H]1CCN(CCCc2ccc(C(=O)OCCN3CCOCC3)cc2)C[C@@H]1OC` [Compound 67, 2-morpholinoethyl 4-(3-((3S,4R)-4-(4-amino-5-chloro-2-methoxybenzamido)-3-methoxypiperidin-1-yl)propyl)benzoate], less than 50 nM. `COc1cc(N)c(Cl)cc1C(=O)NC1CCN(CCCOc2ccc(F)cc2)CC1OC` (stereo not shown) [cisapride]: in data set [2], the deaths reported is recorded as 80 and the “serious cardiac arrhythmias reportedly associated” value is reported as “at least 341”. The “part of dose metabolized by oxidative N-dealkylation or aromatic hydroxylation” value in data set [3] is given as “More than 90%”.

For `COc1cc(N)c(Cl)cc1C(=O)N[C@@H]1CCN(CCNCc2ccc(C(=O)OC3CCNCC3)cc2)C[C@@H]1OC` [Compound 25, piperidin-4-yl 4-((2-((3S,4R)-4-(4-amino-5-chloro-2-methoxybenzamido)-3-methoxypiperidin-1-yl)ethylamino)methyl)benzoate], the Ki at 5-HT4 receptor is less than 50 nM. Besides, the IC50 in data set [1] was more than 25000 nM. The molecule `COc1cc(N)c(Cl)cc1C(=O)N[C@@H]1CCN(CC(=O)Nc2ccc(C(=O)OCCO)cc2)C[C@@H]1OC` [Compound 93, 2-hydroxyethyl 4-(2-((3S,4R)-4-(4-amino-5-chloro-2-methoxybenzamido)-3-methoxypiperidin-1-yl)acetamido)benzoate] returned a Ki on 5-HT4 receptor of less than 50 nM. The same molecule came in with an IC50 in data set [1] of more than 25000 nM. Consider `COc1cc(N)c(Cl)cc1C(=O)N[C@@H]1CCN(CC(=O)Nc2ccc(C(=O)OCC(N)=O)cc2)C[C@@H]1OC` [Compound 94, 2-amino-2-oxoethyl 4-(2-((3S,4R)-4-(4-amino-5-chloro-2-methoxybenzamido)-3-methoxypiperidin-1-yl)acetamido)benzoate], for which the Ki at 5-HT4 receptor was less than 50 nM. Also, the IC50 in data set [1] fell in the range of 5000 to 10000 nM.

`COc1cc(N)c(Cl)cc1C(=O)N[C@@H]1CCN(CC(=O)Nc2ccc(CC(=O)OC3CCN(C)CC3)cc2)C[C@@H]1OC` [Compound 47, 1-methylpiperidin-4-yl 2-(4-(2-((3S,4R)-4-(4-amino-5-chloro-2-methoxybenzamido)-3-methoxypiperidin-1-yl)acetamido)phenyl)acetate] displayed a Ki on 5-HT4 receptor of less than 50 nM. In data set [1], this molecule yielded an IC50 of more than 25000 nM. `COc1cc(N)c(Cl)cc1C(=O)N[C@@H]1CCN(CC(=O)Nc2ccc(OC(C)=O)cc2)C[C@@H]1OC` [Compound 60, 4-(2-((3S,4R)-4-(4-amino-5-chloro-2-methoxybenzamido)-3-methoxypiperidin-1-yl)acetamido)phenyl acetate] came in with a Ki on 5-HT4 receptor of less than 50 nM. At 5-HT4 receptor, `COc1cc(N)c(Cl)cc1C(=O)N[C@@H]1CCN(CCCc2ccc(C(=O)O)cc2)C[C@@H]1OC` [Compound 66, 4-(3-((3S,4R)-4-(4-amino-5-chloro-2-methoxybenzamido)-3-methoxypiperidin-1-yl)propyl)benzoic acid] had a Ki of more than 500 nM. In addition, in data set [1], the IC50 is more than 25000 nM. At 5-HT4 receptor, `COc1cc(N)c(Cl)cc1C(=O)N[C@@H]1CCN(CCN(C)Cc2ccc(C(=O)OC3CCN(C)CC3)cc2)C[C@@H]1OC` [Compound 11, 1-methylpiperidin-4-yl 4-(((2-((3S,4R)-4-(4-amino-5-chloro-2-methoxybenzamido)-3-methoxypiperidin-1-yl)ethyl)(methyl)amino)methyl)benzoate] displayed a Ki of less than 50 nM. The same measure, in the same setting: the value for `COc1cc(N)c(Cl)cc1C(=O)N[C@@H]1CCN(CCCc2ccc(C(=O)OCCN3CCCC3)cc2)C[C@@H]1OC` [Compound 68, 2-(pyrrolidin-1-yl)ethyl 4-(3-((3S,4R)-4-(4-amino-5-chloro-2-methoxybenzamido)-3-methoxypiperidin-1-yl)propyl)benzoate] was less than 50 nM. Still for that read-out and setting: as for `CCOC(=O)Cc1ccc(NC(=O)CN2CC[C@@H](NC(=O)c3cc(Cl)c(N)cc3OC)[C@@H](OC)C2)cc1` [Compound 46, ethyl 2-(4-(2-((3S,4R)-4-(4-amino-5-chloro-2-methoxybenzamido)-3-methoxypiperidin-1-yl)acetamido)phenyl)acetate], the figure is less than 50 nM. Turning to `COc1cc(N)c(Cl)cc1C(=O)N[C@@H]1CCN(CCN(C)Cc2ccc(C(=O)OCCN3CCCC3)cc2)C[C@@H]1OC` [Compound 10, 2-(pyrrolidin-1-yl)ethyl 4-(((2-((3S,4R)-4-(4-amino-5-chloro-2-methoxybenzamido)-3-methoxypiperidin-1-yl)ethyl)(methyl)amino)methyl)benzoate], the Ki at 5-HT4 receptor was less than 50 nM. Moreover, the half-maximal inhibitory concentration (IC50) in data set [1] is more than 25000 nM. `COc1cc(N)c(Cl)cc1C(=O)N[C@@H]1CCN(CCNCc2ccc(C(=O)O)cc2)C[C@@H]1OC` [Compound 23, 4-((2-((3S,4R)-4-(4-amino-5-chloro-2-methoxybenzamido)-3-methoxypiperidin-1-yl)ethylamino)methyl)benzoic acid]: the Ki on 5-HT4 receptor is more than 500 nM. Same read-out and setting: as for `COc1cc(N)c(Cl)cc1C(=O)N[C@@H]1CCN(CCNC(=O)c2ccc(C(=O)OC3CCNCC3)cc2)C[C@@H]1OC` [Compound 34, piperidin-4-yl 4-(2-((3S,4R)-4-(4-amino-5-chloro-2-methoxybenzamido)-3-methoxypiperidin-1-yl)ethylcarbamoyl)benzoate], the figure is less than 50 nM. For the molecule `COc1cc(N)c(Cl)cc1C(=O)N[C@@H]1CCN(CCNC(=O)c2ccc(C(=O)O)cc2)C[C@@H]1OC` [Compound 33, 4-(2-((3S,4R)-4-(4-amino-5-chloro-2-methoxybenzamido)-3-methoxypiperidin-1-yl)ethylcarbamoyl)benzoic acid], the Ki at 5-HT4 receptor is more than 500 nM. The IC50 in data set [1] was more than 25000 nM.

In general, Ki refers to a dissociation constant, usually derived from enzyme kinetics or from competition with a known ligand. A high value points to weaker binding. Broadly, the IC50 is the concentration that gives 50% inhibition. A higher IC50 goes with a need for much substance.
